30 molecules from patent publication US5034391A, “Piperazinylalkyl-3(2H)-pyridazinones and the use thereof as agents lowering blood pressure” (CL Pharma Aktiengesellschaft, priority 1988, dated 1991) can be followed below.

One experiment deals with T1, alpha1 adrenoceptors (Rattus norvegicus, UniProt P15823).
T1 construct: from tissue; host or cells: rat cardiac membranes
T1 sequence (P15823 1-515): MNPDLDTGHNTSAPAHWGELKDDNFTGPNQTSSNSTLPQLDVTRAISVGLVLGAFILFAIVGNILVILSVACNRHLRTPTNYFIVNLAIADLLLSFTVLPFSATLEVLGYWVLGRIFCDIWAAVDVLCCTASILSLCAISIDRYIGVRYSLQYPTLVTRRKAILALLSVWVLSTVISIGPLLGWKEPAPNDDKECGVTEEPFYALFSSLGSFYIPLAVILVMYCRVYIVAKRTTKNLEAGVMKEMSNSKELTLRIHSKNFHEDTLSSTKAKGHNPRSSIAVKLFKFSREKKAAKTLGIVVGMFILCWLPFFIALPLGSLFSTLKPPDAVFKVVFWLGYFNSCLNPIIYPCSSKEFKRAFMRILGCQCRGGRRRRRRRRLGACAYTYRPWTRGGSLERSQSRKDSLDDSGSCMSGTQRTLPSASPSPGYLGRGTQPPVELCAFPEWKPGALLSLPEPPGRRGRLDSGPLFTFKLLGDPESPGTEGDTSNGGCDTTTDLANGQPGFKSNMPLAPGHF
Briefly: Affinity for alpha1 adrenoceptors: displacement of tritiated prazosin on rat cardiac membranes. It is filed as binding. To be noted: Ki from IC50 by Cheng and Prusoff, read-out: Inhibition constants at alpha-1-adrenoceptor (Ki). The method, then: The affinity of compounds of the general formula I for alpha1 adrenoceptors was established using the method described by R. S. Williams, D. F. Dukes and […] in J. Cardiovasc. Pharmacol. 3, 522-531 (1981). In this method the competitive displacement of tritiated prazosin (2-(4-(2-furoyl)-1-piperazinyl)-4-amino-6,7-dimethoxy-quinazoline) on rat-cardiac membranes by the test substances is measured, and the IC50 (50% inhibition concentration) is determined as that concentration which brings about a 50% inhibition of the specific binding of tritiated prazosin to the alpha1 adrenoceptors in rat cardiac membranes.
The concentration-independent inhibitor constants K1 -alpha1 were determined from the IC50 values as stated by Y. Cheng and H. W.Prusoff in Biochem. Pharmacol. 22, 3099-3108 (1973).

For the next experiment, the target named is T2, 5-HT-1A receptors (Rattus norvegicus, UniProt P19327).
T2 construct: 5-HT-1A receptors in rat brain membranes; from tissue; host or cells: rat brain membranes
T2 sequence (P19327 1-422): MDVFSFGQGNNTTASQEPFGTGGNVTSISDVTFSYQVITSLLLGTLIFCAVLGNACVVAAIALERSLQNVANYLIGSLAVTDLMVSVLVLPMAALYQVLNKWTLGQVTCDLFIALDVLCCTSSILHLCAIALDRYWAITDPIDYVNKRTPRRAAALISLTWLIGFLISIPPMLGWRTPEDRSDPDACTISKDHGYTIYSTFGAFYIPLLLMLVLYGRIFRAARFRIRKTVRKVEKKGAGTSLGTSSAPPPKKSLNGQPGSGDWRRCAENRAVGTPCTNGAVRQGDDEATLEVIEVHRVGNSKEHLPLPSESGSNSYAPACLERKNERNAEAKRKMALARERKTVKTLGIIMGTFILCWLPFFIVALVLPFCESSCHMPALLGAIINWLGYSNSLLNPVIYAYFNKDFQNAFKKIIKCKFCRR
Briefly: Affinity for 5-HT-1A receptors: displacement of tritiated 8-OH-DPAT on rat brain membranes. Type of experiment: binding. To be noted: Ki from IC50 by Cheng and Prusoff, read-out: Inhibition constants at 5-HT1A-receptor (Ki). The method, then: The affinity of compounds of the general formula I for 5-HT-1A receptors was determined by the method described by H. Gozlan, S. Elmestikawy, L. Pichat, J. Glowinski and M. Hamon in Nature 305, 140-142 (1983). In this method the competitive displacement of tritiated 8-OH-DPAT (8-hydroxy-(di-n-propylamino)tetralin) on rat brain membranes by the test substances is measured, and the IC50 (50% inhibition concentration) is determined as that concentration which brings about a 50% inhibition of the specific binding of tritiated 8-OH-DPAT to 5-HT-1A receptors in rat brain membranes.
The concentration-independent inhibitor constants K1 -alpha1 and K1 -5HT-1A were determined from the IC50 values as stated by Y. Cheng and H. W. Prusoff in Biochem. Pharmacol. 22, 3099-3108 (1973).

pKi: −log10 of the molar value.

Usually pKi stands for the Ki on a negative log10 scale, so that one unit is a factor of ten. In the case of `COc1ccccc1N1CCN(CCNc2cn[nH]c(=O)c2Cl)CC1` [4-Chloro-5-((2-(4-(2-methoxyphenyl)-1-piperazinyl)ethyl)amino)-3(2H)-pyridazinone], the pKi at alpha1 adrenoceptors is 8.27; on 5-HT-1A receptors, 7.57.
As to `COc1ccccc1N1CCN(CCNc2cc(Cl)nn(C)c2=O)CC1` [2-Methyl-6-chloro-4-((2-(4-(2-methoxyphenyl)piperazinyl-1)ethyl)amino)-3(2H)-pyridazinone], the negative-log Ki (pKi) at alpha1 adrenoceptors was 8.25; on 5-HT-1A receptors, 7.55.
With `COc1ccccc1N1CCN(CCCNc2cc(=O)n(C)c(=O)n2C)CC1` [URAPIDIL, reference compound], the values for the negative logarithm of the Ki (pKi) on alpha1 adrenoceptors and on 5-HT-1A receptors were 6.96 and 7.03, respectively.
`Cn1ncc(NCCN2CCN(c3ccccc3)CC2)cc1=O` [2-Methyl-5-((2-(4-phenylpiperazinyl-1)ethyl)amino)-3(2H)-pyridazinone]: the values for the pKi at alpha1 adrenoceptors and at 5-HT-1A receptors were 6.80 and 6.56, respectively.
In the same order, the values of `Cn1ncc(NCCN2CCN(c3ccccc3)CC2)c(Cl)c1=O` [2-Methyl-4-chloro-5-((2-(4-phenylpiperazinyl-1)ethyl)amino)-3(2H)-pyridazinone] are 8.39 and 6.97.
As to `COc1ccccc1N1CCN(CCNc2c(Br)cnn(C)c2=O)CC1` [2-Methyl-5-bromo-4-((2-(4-(2-methoxyphenyl)-1-piperazinyl)ethyl)amino)-3(2H)-pyridazinone], the pKi at alpha1 adrenoceptors was 8.88; on 5-HT-1A receptors, 7.79.
Turning to `COc1ccc(C)cc1N1CCN(CCNc2cnn(C)c(=O)c2)CC1` [2-Methyl-5-((2-(4-(2-methoxy-5-methylphenyl)piperazinyl-1)ethyl)amino)-3(2H)-pyridazinone], the figures for the negative-log Ki (pKi) at alpha1 adrenoceptors and on 5-HT-1A receptors were 7.08 and 6.28, respectively.
Turning to `CCN(CCN1CCN(c2ccccc2OC)CC1)c1ccnn(C)c1=O` [2-Methyl-4-(ethyl-(2-(4-(2-methoxyphenyl)piperazinyl-1)ethyl)amino)-3(2H)-pyridazinone], the pKi on alpha1 adrenoceptors is 7.17; on 5-HT-1A receptors, 7.39.
For the molecule `COc1cc(C)ccc1N1CCN(CCNc2c(Cl)cnn(C)c2=O)CC1` [2-Methyl-5-chloro-4-((2-(4-(2-methoxy-4-methylphenyl)piperazinyl-1)ethyl)amino)-3(2H)-pyridazinone], the negative logarithm of the Ki (pKi) at alpha1 adrenoceptors is 7.65; at 5-HT-1A receptors it was 6.90.
On to `COc1ccc(C)cc1N1CCN(CCNc2cnn(C)c(=O)c2Cl)CC1` [2-Methyl-4-chloro-5-((2-(4-(2-methoxy-5-methylphenyl)piperazinyl-1)ethyl)amino)-3(2H)-pyridazinone], for which the figures for the negative logarithm of the Ki (pKi) on alpha1 adrenoceptors and on 5-HT-1A receptors were 8.16 and 6.29, respectively.
In the case of `COc1ccccc1N1CCN(CCCNc2c(Cl)cnn(C)c2=O)CC1` [2-methyl-5-chloro-4-((3-(4-(2-methoxyphenyl)-1-piperazinyl)propyl)amino)-3(2H)-pyridazinone], the pKi at alpha1 adrenoceptors was 8.46; at 5-HT-1A receptors it was 8.85.
In the same order, the values of `COc1ccccc1N1CCN(CCNc2cnn(CCN(C)C)c(=O)c2Cl)CC1` [2-(Dimethylaminoethyl)-4-chloro-5-((2-(4-(2-methoxyphenyl)piperazinyl-1)ethyl)amino)-3(2H)-pyridazinone] are 7.76 and 6.93.
For the molecule `COc1ccccc1N1CCN(CCNc2cnn(C)c(=O)c2Br)CC1` [2-methyl-4-bromo-5-((2-(4-(2-methoxyphenyl)-1-piperazinyl)ethyl)amino)-3(2H)-pyridazinone], the negative logarithm of the Ki (pKi) on alpha1 adrenoceptors is 8.23; on 5-HT-1A receptors, 7.47.
Turning to `COc1cc(C)ccc1N1CCN(CCNc2ccnn(C)c2=O)CC1` [2-Methyl-4-((2-(4-(2-methoxy-4-methylphenyl)piperazinyl-1)ethyl)amino)-3(2H)-pyridazinone], the pKi is 6.77 at alpha1 adrenoceptors and 6.57 at 5-HT-1A receptors.
Turning to `Cn1nccc(NCCN2CCN(c3ccccc3)CC2)c1=O` [2-Methyl-4-((2-(4-phenylpiperazinyl-1)ethyl)amino)-3(2H) pyridazinone], the pKi at alpha1 adrenoceptors is 7.04; on 5-HT-1A receptors, 6.58.
Consider `COc1ccccc1N1CCN(CCNc2c(Cl)cnn(C(C)(C)C)c2=O)CC1` [2-t-Butyl-5-chloro-4-((2-(4-(2-methoxyphenyl)piperazinyl-1)ethyl)amino)-3(2H)-pyridazinone], for which the pKi is 7.37 at alpha1 adrenoceptors and 8.02 at 5-HT-1A receptors.
With `CC(C)Oc1ccccc1N1CCN(CCNc2cc(Cl)n[nH]c2=O)CC1` [6-Chloro-4-((2-(4-(2-iso-propoxyphenyl)piperazinyl-1)ethyl)amino)-3(2H)-pyridazinone], the negative logarithm of the Ki (pKi) on alpha1 adrenoceptors is 8.00.
As for `COc1cc(C)ccc1N1CCN(CCCNc2cc(Cl)n[nH]c2=O)CC1` [6-Chloro-4-((3-(4-(2-methoxy-4-methylphenyl)piperazinyl-1)propyl)amino)-3(2H)-pyridazinone], the pKi at alpha1 adrenoceptors is 8.13.
As to `COc1ccccc1N1CCN(CCCCNc2c(Cl)cnn(C)c2=O)CC1` [2-methyl-5-chloro-4-((4-(4-(2-methoxyphenyl)-1-piperazinyl)butyl)amino)-3(2H)-pyridazinone], on alpha1 adrenoceptors, the pKi was 8.67.
Regarding `COc1ccccc1N1CCN(CCCCNc2ccnn(C)c2=O)CC1` [2-Methyl-4-((4-(4-(2-methoxyphenyl)piperazinyl-1)butyl)amino)-3(2H)-pyridazinone], the negative-log Ki (pKi) on alpha1 adrenoceptors is 7.93.
Regarding `COc1ccccc1N1CCN(CCNc2cc(Cl)n[nH]c2=O)CC1` [6-Chloro-4-((2-(4-(2-methoxyphenyl)piperazinyl-1)ethyl)amino)-3(2H)-pyridazinone], the pKi on alpha1 adrenoceptors was 7.89.
Same read-out and setting: the result for `CCOc1ccccc1N1CCN(CCCNc2ccn[nH]c2=O)CC1` [4-((3-(4-(2-Ethoxyphenyl)piperazinyl-1)propyl)amino)-3(2H)pyridazinone] reads 7.89.
Take `CCN(CCN1CCN(c2ccccc2OC)CC1)c1cnn(C)c(=O)c1Cl` [2-Methyl-4-chloro-5-(ethyl-(2-(4-(2-methoxyphenyl)piperazinyl-1)ethyl)amino)-3(2H)-pyridazinone]: at alpha1 adrenoceptors, the pKi is 7.43.
With `COc1ccccc1N1CCN(CCCNc2cc(Cl)nn(CCO)c2=O)CC1` [6-Chloro-2-hydroxyethyl-4-((3-(4-(2-methoxyphenyl)piperazinyl-1)propyl)amino)-3(2H)-pyridazinone], the negative logarithm of the Ki (pKi) at alpha1 adrenoceptors was 8.02.
With `Cn1ncc(Cl)c(NCCN2CCN(c3ccccc3OCc3ccccc3)CC2)c1=O` [2-Methyl-5-chloro-4-((2-(4-(2-benzyloxyphenyl)piperazinyl-1)ethyl)amino)-3(2H)-pyridazinone], the pKi on alpha1 adrenoceptors is 8.60.
Still for that read-out and setting: with `Cn1ncc(NCCN2CCN(c3ccccc3O)CC2)cc1=O` [2-Methyl-5-((2-(4-(2-hydroxyphenyl)piperazinyl-1)ethyl)amino)-3(2H)-pyridazinone] the figure was 7.18; with `Cc1ccccc1N1CCN(CCNc2c(Cl)cnn(C)c2=O)CC1` [2-Methyl-5-chloro-4-((2-(4-(2-methylphenyl)piperazinyl-1)ethyl)amino)-3(2H)-pyridazinone], 8.92.
On to `CCn1nc(Cl)cc(NCCCN2CCN(c3ccccc3OC)CC2)c1=O` [6-Chloro-2-ethyl-4-((3-(4-(2-methoxyphenyl)-1-piperazinyl)propyl)amino)-3(2H)-pyridazinone], for which the negative-log Ki (pKi) on alpha1 adrenoceptors is 7.74.
As to `COc1ccccc1N1CCN(CCCCNc2ccn[nH]c2=O)CC1` [4-((4-(4-(2-Methoxyphenyl)piperazinyl-1)butyl)amino) -3(2H)-pyridazinone], on alpha1 adrenoceptors, the pKi was 8.33.
For `COc1ccccc1N1CCN(CCNc2cnn(CCN(C)C)c(=O)c2)CC1` [2-(2-Dimethylaminoethyl)-5-((2-(4-(2-methoxyphenyl)piperazinyl-1)ethyl)amino)-3(2H)-pyridazinone], the negative logarithm of the Ki (pKi) at alpha1 adrenoceptors was 6.64.
